Experimental data from patent US7871978B2, “Bone tropic peptides” (University of Virginia Patent Foundation, priority 2004, dated 2011).
Entries after “also recorded” stand apart in the source; their conditions may differ.

Key:
[1] = test system: bone and marrow tissue sections (mouse femur, rib); assay: Biotinylated peptide binding to bone/marrow tissue sections, Avidin-FITC fluorescence; set-up: key to Localization of peptide binding: Bone/Marrow (tissue sections): ✓: Check marks indicate positive binding observed with FITC; −: a dash indicates a negative result; details: for Localization of peptide binding: Bone/Marrow (tissue sections): FITC; for Binding to rib and long bone growth plate sections: biotinylated peptides, 1/50,000 dilution of Avidin-FITC
Method in brief: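 Cryosections (10 μm) of EDTA-decalcified femurs from 4-week-old mice were avidin/biotin-blocked, incubated 1 h at room temperature with 10 mM biotinylated peptide (PBS as negative control), then overnight at 4 °C with Avidin-FITC (1:50,000). Binding was visualized by fluorescence microscopy with a 535 nm fluorescein filter.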

[2] = test system: bovine aortic endothelial cells; assay: Effect of peptides on adherent bovine aortic endothelial cells on fibronectin or collagen; format: cell-based; details: 0.1M biotinylated peptide, 1 hour; cells adhered four hours on fibronectin or collagen
Experimental: Peptides from the phage display project were added to bovine aortic endothelial cells in culture. The endothelial cells had adhered to a surface coated with collagen or with fibronectin.
Experiment 1: Bovine aortic endothelial cells were plated on glass slides that were coated either fibronectin or collagen. The cell density was 5,000 cells/well. After the cells adhered for four hours, 0.1M of biotinylated peptide was added to each well. The following peptides were used: L1, L2, L5, L6, L7, L12, L13, L14, L19, R1, R3, and R8.
To perform this experiment, the media was removed and the cells were rinsed with 1×PBS plus 1% BSA three times. Peptides were diluted in 1×PBS plus 1% BSA, added to cells and incubated for 1 hour. The cells were rinsed three times with 1% BSA in PBS, and fixed with 2% parafomaldehyde. Aldehyde groups were blocked with 0.2 M HCl-glycine in PBS, the cells were rinsed three times with 1% BSA in PBS and ExtrAvidin-FITC (1:200 dilution) was added and incubated overnight at 4° C. The cells were rinsed three times with 1% BSA in PBS. The chambers and the gasket were removed from each slide, Vectashield was added, covered and viewed on a Nikon microscope. Images were acquired using a Coolsnap digital camera and Metavue software. […]
Experiment 3: The cells were adherent for about 6 hours and peptides at various concentrations were added to the cells. The concentrations of each of the peptides used in this experiment were: 0.1M, 0.01M, 0.001M and 0.0001M biotinylated peptide. The following peptides were tested: L1, L5, L6, L7, L13, L14, R1, R3, R8, DIP1 and PBS control (SEQ ID NOs:1, 3, 4, 5, 8, 9, 11, 13, 14, and 29).

bone and bone marrow = assay: In vivo biopanning with 12-mer peptide phage display library; set-up: species or system BALB/c mice; details: for PERCENT FREQUENCY: phage eluted from bone and bone marrow; for PHAGE SEQUENCE FREQUENCY (number of times the sequence was found in a group of plaques): phage eluted from bone and bone marrow after repeated rounds
Method in brief: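 BALB/c mice (8 weeks) received 3.4×10^10 pfu of a 12-mer peptide phage library (pIII fusion, GGGS spacer) by intracardiac injection and were euthanized after 5 min. Bound phage eluted from bone and bone marrow was titered, amplified and re-injected at the same dose. Peptide frequency was compared with liver, kidney, lung, spleen and brain; sequences identified by phage DNA sequencing.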

[3] = test system: bovine aortic endothelial cells (BAEC); assay: Peptide binding to BAEC in culture (Avidin-FITC); set-up: key: ✓: Check marks indicate positive binding observed with FITC; −: a dash indicates a negative result
Experimental: For localization of peptide binding to cells and tissue sections, biotinylated peptides were synthesized. Fluorescein-isothiocyanate (FITC) labeled Avidin was used to localize the peptides on cells in culture and in tissue sections in vitro by epiluminescence microscopy. In addition, the biotinylated peptides were detected at concentrations as low as 1 μM in slot blots.
Bone marrow cells isolated from mouse femur were lifted with ethylenediaminetetraacetic acid (EDTA) and trypsin, resuspended, and allowed to attach on fibronectin-coated chamber slides for Avidin-FITC staining. […] The D1 cell is a multipotential mesenchymal stem-like line that was isolated from bone marrow and shown to have the characteristics of osteoprogenitor cells. This cell line has been well established and used successfully in several in vitro and in vivo studies in our laboratory. Peptide binding to human bone marrow endothelial cells (HBME) and bovine aortic endothelial cells (BAEC) in culture was also tested using the same procedure.

[4] = test system: Unicortical femoral defects; assay: Peptide-mediated osteogenesis in cortical bone defects (Example 8); format: in vivo, Fisher 344 rats; details: for Histological appearance of repair tissue in the defect / Effectiveness at stimulating osteogenesis and cortical bone repair: 100 mM peptide in gelfoam, two weeks postoperatively; for Effectiveness at stimulating osteogenesis and cortical bone repair: versus gelfoam+PBS
Method in brief: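 Peptides (100 mM in a 1.5 × 2 mm gelfoam carrier) were placed in 1.5 mm unicortical femoral defects in Fisher 344 rats, with the contralateral defect given gelfoam+PBS as control, and harvested at two weeks. L7 was also dosed at 1, 5 and 20 mM, and 20 mM L7 was followed over 5, 10, 15 and 20 days.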

[5] = BALB/c mouse decalcified femur cryosections, biotinylated peptide and Avidin-FITC
[6] = BALB/c mouse femur cryosections, biotinylated peptide
[7] = Swiss Webster mouse decalcified femur cryosections, 10 mM biotinylated peptide, 1 hour, Avidin-FITC
[8] = Swiss Webster mouse femur cryosections, 10 mM biotinylated peptide
[9] = biotinylated peptide, Avidin-FITC

Fluorescence detected in femur sections incubated with peptide [1, 5]	Localization of peptide binding: Bone/Marrow (tissue sections) [1]	Fluorescence detected in femur sections incubated with peptide [1, 7]	Substance	Cell shape preferentially recognized by peptide [1, 6]	Extent of marrow cells detected by fluorescence [1, 6]	Cell shape preferentially recognized by peptide [1, 8]	Extent of marrow cells detected by fluorescence [1, 8]	Effect on adherent BAEC (Experiment 1) [2]	PERCENT FREQUENCY (bone and bone marrow)	PHAGE SEQUENCE FREQUENCY (number of times the sequence was found in a group of plaques) (bone and bone marrow)	Localization of peptide binding: BAEC [3]	New bone formation versus corresponding controls at every time point ([4]; 20 mM, 5, 10, 15, and 20 days)	Time course of cortical bone repair ([4]; 20 mM, 5, 10, 15, and 20 days)	Histological appearance of repair tissue in the defect [4]	Effectiveness at stimulating osteogenesis and cortical bone repair [4]	Amount of bone that regenerated versus controls without peptide ([4]; 1, 5, and 20 mM)	Effect of peptide concentration on cortical bone regeneration ([4]; 1, 5, and 20 mM)	Binding to rib and long bone growth plate sections [1]	Binding to bone and marrow in cryosections of mouse femur [1, 9]	Binding to fresh frozen sections of mouse rib [1, 9]
Fluorescence was detected	✓	Fluorescence was detected	ASN-SER-MET-ILE-ALA-HIS-ASN-LYS-THR-ARG-MET-HIS-GLY-GLY-GLY-SER (NSMIAHNKTRMHGGGS; listed as Homo sapiens) [Peptide L7]	Cells that appeared morphologically elongated showed the highest fluorescence intensity	most of the cells were detectable but fluorescence intensity was variable	Cells that appeared morphologically elongated showed the highest fluorescence intensity	most of the cells were detectable but fluorescence intensity was variable	the cells lifted and formed clusters that stained intensely	3.6%	1/28	✓	new bone formation was greater in the defects treated with peptide compared with the corresponding controls	Cortical bone regeneration increased with time	considerable amounts of cortical bone in the defects	potentiate bone regeneration in vivo; also recorded: most effective at stimulating osteogenesis and cortical bone repair; also recorded: most effective peptides for osteogenesis and repair of cortical defects	increased with all the concentrations of peptide, even at 1 mM and 5 mM compared with the controls without peptide	Osteogenesis was most pronounced with the highest concentration of peptide			
Fluorescence was detected	✓	Fluorescence was detected	ASN-TYR-SER-HIS-LEU-ARG-VAL-LYS-LEU-PRO-THR-PRO-GLY-GLY-GLY-SER (NYSHLRVKLPTPGGGS; listed as Homo sapiens) [Peptide R1]	recognized the round cells preferentially	did not detect as many cells	recognized the round cells preferentially	did not detect as many cells	the cells had lifted completely and most of the cells disappeared from the surface of the slides, leaving a lot of cell debris	24.1%	7/29	✓			considerable amounts of cortical bone in the defects	potentiate bone regeneration in vivo; also recorded: most effective at stimulating osteogenesis and cortical bone repair; also recorded: most effective peptides for osteogenesis and repair of cortical defects			significant binding to rib and long bone growth plate		
	✓		SER-GLY-HIS-GLN-LEU-LEU-LEU-ASN-LYS-MET-PRO-ASN-GLY-GLY-GLY-SER (SGHQLLLNKMPNGGGS; listed as Homo sapiens) [Peptide L13]					no effect, with results similar to PBS	23.3%	7/30	−			a considerable amount of gelfoam remaining in the defects, with thinner and more loosely organized cortical bone	least effective for cortical bone repair			significant binding to rib and long bone growth plate	binds to areas of bone and marrow in cryosections of mouse femur	binds to fresh frozen sections of mouse rib containing bone and marrow cells
